Data published in patent publication US20250127727A1, “IONIZABLE LIPIDS WITH BIOACTIVE MOTIFS” (GEORGIA TECH RESEARCH CORPORATION, priority 2021, published 2025).

Tested on: Ai14 mice
Assay: Normalized delivery and fold enrichment from DNA barcode sequencing of tdTomato+ cells
Assay type: in vivo
Details: by LNP component; pool of 65 LNPs
Experimental: Following characterization of the pool of 65 Pi-LNPs, the LNPs were injected into Ai14 mice at a total nucleic dose of 1.5 mg/kg (averaging a 0.023 mg total nucleic acid/kg/particle, for all 65 Pi-LNPs) (FIG. 2A). The Ai14 mice have a Lox-Stop-Lox-tdTomato construct downstream of a CAG promoter. Thus, if Cre mRNA is delivered into a target cell and is subsequently functionally translated into Cre protein, the cells become tdTomato+ (FIG. 2A). By isolating tdTomato+ cells using fluorescence-activated cell sorting (FACS, FIG. 4, FIG. 5) and sequencing the cells using next-generation sequencing, it was possible to isolate the DNA barcodes, associated with specific LNPs, within cells that were functionally transfected with Cre mRNA 26, 36-38 Three days after injection, liver, spleen, lung, and kidney were isolated and quantified the percentage of tdTomato+ cells from 14 different cell populations (FIG. 2B). […] The percentage of tdTomato+ quantified in liver endothelial cells and dendritic cells was <5%, and no delivery in lung and kidney was observed. […] From the barcode raw counts obtained through sequencing, the normalized delivery of each individual barcode was calculated. Briefly, the normalized delivery of a given barcode was calculated as the number of counts for that barcode divided by the counts for all N barcodes (Tables 1-3, below). […]

For CC(C)CCC[C@@H](C)[C@H]1CC[C@H]2[C@@H]3CC=C4C[C@@H](O)CC[C@]4(C)[C@H]3CC[C@]12C [cholesterol], the “fold enrichment (odds of being in top or bottom 10% of LNPs)” value was “outperformed 20α-OH cholesterol”.
